Laboratory results taken from US11384083B2, “Substituted spiro[cyclopropane-1,5′-pyrrolo[2,3-d]pyrimidin]-6′(7′h)-ones as CDK2 inhibitors” (Incyte Corporation, priority 2019, dated 2022).

Molecular target: CDK2/Cyclin E1 (Homo sapiens (Human), UniProt P24941)
Experiment: CDK2/Cyclin E1 HTRF enzyme activity assay
Format: biochemical
Conditions: 1 mM ATP
Experimental: Example A. CDK2/Cyclin E1 HTRF Enzyme Activity Assay
CDK2/Cyclin E1 enzyme activity assays utilized full-length human CDK2 co-expressed as N-terminal GST-tagged protein with FLAG-Cyclin E1 in a baculovirus expression system (Carna Product Number 04-165). Assays were conducted in white 384-well polystyrene plates in a final reaction volume of 8 μL. CDK2/Cyclin E1 (0.25 nM) was incubated with compounds (40 nL serially diluted in DMSO) in the presence of ATP (50 μM or 1 mM) and 50 nM ULight™-labeled eIF4E-binding protein 1 (THR37/46) peptide (PerkinElmer) in assay buffer (containing 50 mM HEPES pH 7.5, 1 mM EGTA, 10 mM MgCl2, 2 mM DTT, 0.05 mg/mL BSA, and 0.01% Tween 20) for 60 minutes at room temperature. The reactions were stopped by the addition of EDTA and Europium-labeled anti-phospho-4E-BP1 antibody (PerkinElmer), for a final concentration of 15 mM and 1.5 nM, respectively. HTRF signals were read after 1 hour at room temperature on a PHERAstar FS plate reader (BMG Labtech). Data were analyzed with IDBS XLFit and GraphPad Prism 5.0 software using a three or four parameter dose response curve to determine IC50 for each compound.

IC50 [nM]	SMILES
≤ 50	O=C1N(C2CCCC2)c2nc(NC3CCN(S(=O)(=O)c4cccnc4)CC3)ncc2C12CC2 [Example 5, 7′-Cyclopentyl-2′-((1-(pyridin-3-ylsulfonyl)piperidin-4-yl)amino)spiro[cyclopropane-1,5′-pyrrolo[2,3-d]pyrimidin]-6′(7′H)-one]
≤ 50	CCN1CC(n2cc(S(=O)(=O)N3CCC(Nc4ncc5c(n4)N([C@@H](C)C4CC4)C(=O)C54CC4)CC3)cn2)C1 [Example 16, (S)-7′-(1-cyclopropylethyl)-2′-((1-((1-(1-ethylazetidin-3-yl)-1H-pyrazol-4-yl)sulfonyl)piperidin-4-yl)amino)spiro[cyclopropane-1,5′-pyrrolo[2,3-d]pyrimidin]-6′(7′H)-one]
≤ 50	CCC(C(F)F)N1C(=O)C2(CC2)c2cnc(NC3CCN(S(C)(=O)=O)CC3)nc21 (racemic) [Example 10, 7′-(1,1-difluorobutan-2-yl)-2′-((1-(methylsulfonyl)piperidin-4-yl)amino)spiro[cyclopropane-1,5′-pyrrolo[2,3-d]pyrimidin]-6′(7′H)-one]
≤ 50	C[C@@]1(O)CCC[C@H]1N1C(=O)C2(CC2)c2cnc(NC3CCN(S(=O)(=O)c4ncc[nH]4)CC3)nc21 (relative stereo) [Example 17, 2′-((1-((1H-imidazol-2-yl)sulfonyl)piperidin-4-yl)amino)-7′-((trans)-2-hydroxy-2-methylcyclopentyl)spiro[cyclopropane-1,5′-pyrrolo[2,3-d]pyrimidin]-6′(7′H)-one]
≤ 50	O=C1N([C@@H]2CCC[C@@H](O)C2)c2nc(NC3CCN(S(=O)(=O)c4cccc(N5CCC5)n4)CC3)ncc2C12CC2 [Example 13, 2′-((1-((6-(azetidin-1-yl)pyridin-2-yl)sulfonyl)piperidin-4-yl)amino)-7′-((1R,3R)-3-hydroxycyclohexyl)spiro[cyclopropane-1,5′-pyrrolo[2,3-d]pyrimidin]-6′(7′H)-one]
≤ 50	CC1CCCC1N1C(=O)C2(CC2)c2cnc(NC3CCN(S(C)(=O)=O)CC3)nc21 (stereo not shown) [Example 8, 7′-(2-Methylcyclopentyl)-2′-((1-(methylsulfonyl)piperidin-4-yl)amino)spiro[cyclopropane-1,5′-pyrrolo[2,3-d]pyrimidin]-6′(7′H)-one]
≤ 50	O=C1N(c2cc3c(cc2Cl)CNCC3)c2nc(NC3CCN(S(=O)(=O)c4ncc[nH]4)CC3)ncc2C12CC2 [Example 18, 2′-((1-((1H-imidazol-2-yl)sulfonyl)piperidin-4-yl)amino)-7′-(7-chloro-1,2,3,4-tetrahydroisoquinolin-6-yl)spiro[cyclopropane-1,5′-pyrrolo[2,3-d]pyrimidin]-6′(7′H)-one]
≤ 50	Cn1cc(S(=O)(=O)N2CCC(Nc3ncc4c(n3)N([C@@H]3CCC[C@@H](O)C3)C(=O)C43CC3)CC2)cn1 [Example 12, 7′-((1R,3R)-3-hydroxycyclohexyl)-2′-((1-((1-methyl-1H-pyrazol-4-yl)sulfonyl)piperidin-4-yl)amino)spiro[cyclopropane-1,5′-pyrrolo[2,3-d]pyrimidin]-6′(7′H)-one]
≤ 50	C[C@@H](C1CC1)N1C(=O)C2(CC2)c2cnc(NC3CCN(S(=O)(=O)c4ccc(=O)[nH]c4)CC3)nc21 [Example 15, (S)-7′-(1-cyclopropylethyl)-2′-((1-((6-oxo-1,6-dihydropyridin-3-yl)sulfonyl)piperidin-4-yl)amino)spiro[cyclopropane-1,5′-pyrrolo[2,3-d]pyrimidin]-6′(7′H)-one]
≤ 50	Cn1cc(S(=O)(=O)N2CCC(Nc3ncc4c(n3)N(C3CCCC3)C(=O)C43CC3)CC2)cn1 [Example 7, 7′-Cyclopentyl-2′-((1-((1-methyl-1H-pyrazol-4-yl)sulfonyl)piperidin-4-yl)amino)spiro[cyclopropane-1,5′-pyrrolo[2,3-d]pyrimidin]-6′(7′H)-one]
≤ 50	C[C@@H](C1CC1)N1C(=O)C2(CC2)c2cnc(NC3CCN(S(=O)(=O)c4ncc[nH]4)CC3)nc21 [Example 14, (S)-2′-((1-((1H-imidazol-2-yl)sulfonyl)piperidin-4-yl)amino)-7′-(1-cyclopropylethyl)spiro[cyclopropane-1,5′-pyrrolo[2,3-d]pyrimidin]-6′(7′H)-one]
≤ 50	CCn1cnc(S(=O)(=O)N2CCC(Nc3ncc4c(n3)N(c3cc(F)ccc3Cl)C(=O)C43CC3)CC2)c1 [Example 19, 7′-(2-chloro-5-fluorophenyl)-2′-((1-((1-ethyl-1H-imidazol-4-yl)sulfonyl)piperidin-4-yl)amino)spiro[cyclopropane-1,5′-pyrrolo[2,3-d]pyrimidin]-6′(7′H)-one]
≤ 50	O=C1N(C2CCCC2)c2nc(NC3CCN(S(=O)(=O)C4CC4)CC3)ncc2C12CC2 [Example 3, 7′-Cyclopentyl-2′-((1-(cyclopropylsulfonyl)piperidin-4-yl)amino)spiro[cyclopropane-1,5′-pyrrolo[2,3-d]pyrimidin]-6′(7′H)-one]
